In EP0355842A2, “External preparation” (Sansho Seiyaku Co., Ltd., priority 1988, dated 1990):

What follows are molecules tested on B16 cells (assay: Melanin-production test of B16 cells). Conditions: evaluated concentration 80 µM; culture for 5 days.
Format: cell-based, mouse
Protocol: Experimental Example: Melanin-production test of B16 cells
B16 cells (4 x 10⁴) derived from mouse melanoma are suspended in Eagle MBM medium containing bovine fetal serum (10 ml) for culture in the presence of 5% CO₂ at 37°C in 25-cm³ Rou bottle. At day 0 and 3, the medium is replaced for a medium containing each of the above substances of 80 µM/l or 60 µM/l to continue the culture for 5 days. The cells washed with phosphate buffer (pH 7.2) containing 0.8 W/V NaCl, were separated using the solution containing trypsin and EDTA, and filtered to recover the cells. The cells recovered on the filter were measured of their reflection luminous intensity (degree of darkness) at 500 nm with a densitometer.

| Number of cells | Molecule | Melanin levels [µg/10^6 cells] |
| --- | --- | --- |
| 2.5 × 10^4 cells | CCCCC=CCCCCCCCC(=O)O [9-Tetradecenoic acid] | 0.3 |
| 2.7 × 10^4 cells | CCCCCCC=CCCCCCCCCC(=O)OCC(COC(=O)CCCCCCCCC=CCCCCCC)OC(=O)CCCCCCCCC=CCCCCCC (stereo not drawn) [Triheptadecenoin] | 1.0 |
| 2.7 × 10^4 cells | CC=CC(=O)O [2-Butenoic acid] | 4.6 |
| 2.1 × 10^4 cells | CCCCCC/C=C\CCCCCCCC(=O)OCC(O)COC(=O)CCCCCCC/C=C\CCCCCC [1,3-Dipalmitolein] | 0.1 |
| 2.5 × 10^4 cells | CCCCC=CCCCCCCCCC(=O)OCC(CO)OC(=O)CCCCCCCCC=CCCCC (stereo not drawn) [1,2-Dipentadecenoin] | 0.1 |
| 2.4 × 10^4 cells | CCCCC=CCCCCCCCCC(=O)OCC(O)CO (stereo not drawn) [1-Monopentadecenoin] | 0.1 |
| 2.7 × 10^4 cells | CCCC=CCCCCCC(=O)O [7-Undecenoic acid] | 4.7 |
| 2.6 × 10^4 cells | CCCC=CCCCCC(=O)O [6-Decenoic acid] | 4.8 |
| 2.5 × 10^4 cells | CCC=CCC=CCCCCC(=O)O [6,9-Dodecadienoic acid] | 4.4 |
| 2.6 × 10^4 cells | CCCCCCC=CCCCCCCCCC(=O)O [10-Heptadecenoic acid] | 0.5 |
| 2.2 × 10^4 cells | CCCCCC/C=C\CCCCCCCC(=O)OCC(O)CO (stereo not drawn) [1-Monopalmitolein] | 0.1 |
| 2.2 × 10^4 cells | CCCCCCC=CCCCCCCCCC(=O)OC(CO)CO [2-Monoheptadecenoin] | 0.3 |
| 2.4 × 10^4 cells | CCC=CCC=CCCCCCC(=O)O [7,10-Tridecadienoic acid] | 3.2 |
| 2.5 × 10^4 cells | CCCC/C=C\CCCCCCCC(=O)OCC(O)CO (stereo not drawn) [1-Monomyristolein] | 2.2 |
| 2.8 × 10^4 cells | CCCCCC/C=C\CCCCCCCC(=O)OC[C@H](COP(=O)([O-])OCC[N+](C)(C)C)OC(=O)CCCCCCC/C=C\CCCCCC [L-α-Lecithin dipalmitoleyl] | 3.9 |
| 2.7 × 10^4 cells | CCC=CCCCCCCCC(=O)OCC(O)CO (stereo not drawn) [1-Monododecenoin] | 4.2 |
| 2.6 × 10^4 cells | CCCC/C=C\CCCCCCCC(=O)OC [Myristoleic acid methyl] | 1.2 |
| 2.4 × 10^4 cells | CCC=CCCCCCCCC(=O)OCC(CO)OC(=O)CCCCCCCC=CCC (stereo not drawn) [1,2-Didodecenoin] | 4.0 |
| 2.1 × 10^4 cells | CCCCCCC=CCCCCCCCCC(=O)OCC(O)COC(=O)CCCCCCCCC=CCCCCCC (stereo not drawn) [1,3-Heptadecenoin] | 1.2 |
| 2.5 × 10^4 cells | CCCCC=CCC=CCCCCC(=O)O [6,9-Tetradecadienoic acid] | 0.3 |
| 2.2 × 10^4 cells | 2-Monopentadecenoin | 0.1 |
| 2.5 × 10^4 cells | CCCC/C=C\CCCCCCCC(=O)OCC(CO)OC(=O)CCCCCCC/C=C\CCCC (stereo not drawn) [1,2-Dimyristolein] | 2.8 |

| Number of cells | Molecule | Melanin levels [µg/10^6 cells] |
| --- | --- | --- |
| 2.7 × 10^4 cells | CCCCC=CCCCCCCCCC(=O)OC [10-Pentadecenoic acid methyl] | 0.1 |
| 2.2 × 10^4 cells | CCCCC=CCCCCCCCCC(=O)OCC(COC(=O)CCCCCCCCC=CCCCC)OC(=O)CCCCCCCCC=CCCCC (stereo not drawn) [Tripentadecenoin] | 0.2 |
| 2.1 × 10^4 cells | CCCCC=CCCCCCCCCC(=O)OCC(O)COC(=O)CCCCCCCCC=CCCCC (stereo not drawn) [1,3-Dipentadecenoin] | 0.2 |
| 2.6 × 10^4 cells | CC=CCCCCC(=O)OCC(O)CO (stereo not drawn) [1-Monooctenoin] | 4.5 |
| 2.0 × 10^4 cells | CCCCCCC=CCCCCCCCCC(=O)OCC(O)CO (stereo not drawn) [1-Monoheptadecenoin] | 0.4 |
| 2.5 × 10^4 cells | CCCC=CCC=CCC=CCCCCC(=O)O [6,9,12-Hexadecatrienoic acid] | 0.1 |
| 2.2 × 10^4 cells | CCCCCC/C=C\CCCCCCCC(=O)OCC(CO)OC(=O)CCCCCCC/C=C\CCCCCC (stereo not drawn) [1,2-Dipalmitolein] | 0.1 |
| 2.1 × 10^4 cells | CCCCCC/C=C\CCCCCCCC(=O)OCC(COC(=O)CCCCCCC/C=C\CCCCCC)OC(=O)CCCCCCC/C=C\CCCCCC [Tripalmitolein] | 0.1 |
| 2.7 × 10^4 cells | CCCCCC/C=C/CCCCCCCC(=O)OC[C@H](COP(=O)([O-])OCC[N+](C)(C)C)OC(=O)CCCCCCC/C=C/CCCCCC [L-α-Lecithin dipalmitoelaidoyl] | 3.8 |
| 2.5 × 10^4 cells | CCCCCCC=CCCCCCCCCC(=O)OC [10-Heptadecenoic acid methyl] | 2.0 |
| 2.4 × 10^4 cells | CCC=CCC(=O)OC(CO)CO [2-Monohexenoin] | 4.3 |
| 2.5 × 10^4 cells | CCCC/C=C\CCCCCCCC(=O)OCC(COC(=O)CCCCCCC/C=C\CCCC)OC(=O)CCCCCCC/C=C\CCCC [Trimyristolein] | 1.5 |
| 2.6 × 10^4 cells | CC=CCCCCC(=O)O [6-Octenoic acid] | 4.7 |
| 2.4 × 10^4 cells | CCCCCCC=CCC=CCCCCC(=O)O [6,9-Hexadecadienoic acid] | 0.1 |
| 2.6 × 10^4 cells | CCCCC=CCC=CCCCCCC(=O)O [7,10-Pentadecadienoic acid] | 0.1 |
| 2.0 × 10^4 cells | CCCC/C=C\CCCCCCCC(=O)OCC(O)COC(=O)CCCCCCC/C=C\CCCC [1,3-Dimyristoelin] | 1.2 |
| 2.6 × 10^4 cells | CCCCC=CCCCCCCCCC(=O)O [10-Pentadecenoic acid] | 0.1 |
| 2.1 × 10^4 cells | CCCCCC/C=C\CCCCCCCC(=O)OC(CO)CO [2-Monopalmitolein] | 0.1 |
| 2.7 × 10^4 cells | CCC=CCCCCCCCCC(=O)O [10-Tridecenoic acid] | 3.0 |
| 2.5 × 10^4 cells | CCCC=CCCCCCC(=O)OC(CO)CO [2-Monoundecenoin] | 3.9 |
| 2.6 × 10^4 cells | CCCCCC/C=C\CCCCCCCC(=O)OC [Palmitoleic acid methyl] | 0.1 |
| 2.7 × 10^4 cells | CCC=CCCCCCCCC(=O)O [9-Dodecenoic acid] | 4.6 |

| Molecule | Number of cells | Melanin levels [µg/10^6 cells] |
| --- | --- | --- |
| CCCCCCC=CCCCCCCCC(=O)O [9-Hexadecenoic acid] | 3.2 × 10^4 cells | 0.1 |
